In patent US20130023485A1, “PARENTERAL FORMULATIONS OF PEPTIDES FOR THE TREATMENT OF SYSTEMATIC LUPUS ERYTHEMATOSUS” (Teva Pharmaceutical Industries, Ltd., priority 2003, published 2013):

Legend:
LN cells [1] = test: IFN-γ secretion by cultured LN cells of immunized and treated mice (ELISA); format: in vivo, BALB/c mice
Procedure: A group of 20 mice were immunized with 50 μg/mouse of Compound 1 RS. The immunized mice were allocated to five treatment groups as follows: placebo, 25, 50, 100 and 200 μg/mouse of Compound 1 DP (subcutaneous administration). Ten days post immunization and treatment, LN was extracted and single cell suspension was prepared. The in-vitro secretion of IFN-γ and TGF-β by the cultured cells in response to activation with several concentrations of Compound 1 RS was then measured. [table] [table] Mice: 20 female BALB/c mice, supplied by Harlan animals breeding center, Rehovot. Age at immunization (week+days): 10 Average weight of mice included in the experiment: 19.01 gr. The immunization was performed by injecting 100 microliters of the immunization emulsion (50 microliters into each hind footpad). […] Mice were sacrificed by cervical dislocation. LN were extracted from the hind legs and were transferred to a sterile petri dish containing about 5 mL RPMI. The cells were extracted by gentle squeezing of the tissue against a 200 micrometer mesh stainless steel net. The cells were collected and centrifuged at 300 G for 10 minutes at RT. Single cell suspensions were prepared from pooled LN of each experimental group. […] Secretion of IFN-γ and TGF-β, as indication of cellular response, were determined by ELISA of culture media (48 hrs for IFN-γ and 72 hrs for TGF-β).

[2] = test system: Balb/c mice and (NZB×NZW)F1 mice; details: cited from earlier work
LN cells [3] = test: TGF-β secretion by cultured LN cells of immunized and treated mice (ELISA); format: in vivo, BALB/c mice; details: all Compound 1 treatment groups (25-200 μg/mouse)
Procedure: A group of 20 mice were immunized with 50 μg/mouse of Compound 1 RS. The immunized mice were allocated to five treatment groups as follows: placebo, 25, 50, 100 and 200 μg/mouse of Compound 1 DP (subcutaneous administration). Ten days post immunization and treatment, LN was extracted and single cell suspension was prepared. The in-vitro secretion of IFN-γ and TGF-β by the cultured cells in response to activation with several concentrations of Compound 1 RS was then measured. [table] […] Secretion of IFN-γ and TGF-β, as indication of cellular response, were determined by ELISA of culture media (48 hrs for IFN-γ and 72 hrs for TGF-β).

[4] = test system: IL-2 secretion by PBL of SLE patients; test: Inhibition of IL-2 secretion by PBL stimulated with human 16/6Id mAb (CTLL line); format: cell-based
Procedure: It was of interest to find out whether the hCDR peptides are capable of inhibiting IL-2 secretion by PBL of SLE patients following stimulation with the human 16/6Id mAb. […] To this end, PBL of SLE patients were incubated with the human 16/6Id mAb in the absence or presence of the peptides hCDR1 or hCDR3. Supernatants of the cultures were collected following 48 hours of incubation. Assays to determine levels of IL-2 in the supernatants were performed using the CTLL IL-2 dependent line. Briefly, cells of the CTLL line (2×10^4/well) were incubated in the presence of the different supernatants for 24 hours, followed by the addition of ^3H-thymidine for an additional 18-hour incubation period. Cells were then harvested and radioactivity counted using a β-counter. Results were calculated based on recombinant human IL-2 used as a standard. The ability of the peptides to inhibit the IL-2 secretion of PBL of 23 responders stimulated by the human 16/6 Id was tested. […] Inhibition of proliferative responses of PBL directly correlated with IL-2 inhibition by the CDR-based peptides.

(NZB×NZW)F1 female mice = test: Lupus symptoms in SLE-prone (NZB×NZW)F1 female mice; format: in vivo, mouse
Procedure: The same batch of drug substance was used in this study and in the first Phase I clinical trial with Compound 1. The mice were followed for anti-dsDNA antibodies and for proteinuria. When the mice were sacrificed, the intensity of ICD was determined in kidneys.

[5] = Biological activity of chosen Compound 1 formulations
Source text: The pH was adjusted if needed.

## H-GYYWSWIRQPPGKGEEWIG-OH [Compound 1]
LN cells [1]; treated 25 μg/M s.c., 5 million cells/well, activation Compound 1 3.125 μg/ml
  Final cytokine (IFN-γ): BQL
LN cells [1]; treated 25 μg/M s.c., 5 million cells/well, activation Compound 1 6.25 μg/ml
  Final cytokine (IFN-γ): BQL
LN cells [1]; treated 25 μg/M s.c., 5 million cells/well, activation Compound 1 12.5 μg/ml
  Final cytokine (IFN-γ): 41.9 pg/mL
LN cells [1]; treated 25 μg/M s.c., 5 million cells/well, activation Compound 1 50 μg/ml
  Final cytokine (IFN-γ): 104.2 pg/mL
LN cells [1]; treated 25 μg/M s.c., 5 million cells/well, activation Compound 1 100 μg/ml
  Final cytokine (IFN-γ): 185.2 pg/mL
LN cells [1]; treated 25 μg/M s.c., 5 million cells/well, activation Compound 1 25 μ/ml
  Final cytokine (IFN-γ): 70.0 pg/mL
LN cells [1]; treated 25 μg/M s.c., 5 million cells/well, activation Con A
  Final cytokine (IFN-γ): 2995.3 pg/mL
LN cells [1]; treated 50 μg/M s.c., 2.5 million cells/well, activation Compound 1 3.125 μg/ml
  Final cytokine (IFN-γ): 54.1 pg/mL
LN cells [1]; treated 50 μg/M s.c., 2.5 million cells/well, activation Compound 1 6.25 μg/ml
  Final cytokine (IFN-γ): 81.8 pg/mL
LN cells [1]; treated 50 μg/M s.c., 2.5 million cells/well, activation Compound 1 12.5 μg/ml
  Final cytokine (IFN-γ): 123.1 pg/mL
LN cells [1]; treated 50 μg/M s.c., 2.5 million cells/well, activation Compound 1 50 μg/ml
  Final cytokine (IFN-γ): 292.5 pg/mL
LN cells [1]; treated 50 μg/M s.c., 2.5 million cells/well, activation Compound 1 100 μg/ml
  Final cytokine (IFN-γ): 531.8 pg/mL
LN cells [1]; treated 50 μg/M s.c., 2.5 million cells/well, activation Compound 1 25 μ/ml
  Final cytokine (IFN-γ): 215.1 pg/mL
LN cells [1]; treated 50 μg/M s.c., 2.5 million cells/well, activation Con A
  Final cytokine (IFN-γ): 356.2 pg/mL
LN cells [1]; treated 50 μg/M s.c., 5 million cells/well, activation Compound 1 3.125 μg/ml
  Final cytokine (IFN-γ): 76.2 pg/mL
LN cells [1]; treated 50 μg/M s.c., 5 million cells/well, activation Compound 1 6.25 μg/ml
  Final cytokine (IFN-γ): 109.2 pg/mL
LN cells [1]; treated 50 μg/M s.c., 5 million cells/well, activation Compound 1 12.5 μg/ml
  Final cytokine (IFN-γ): 179.5 pg/mL
LN cells [1]; treated 50 μg/M s.c., 5 million cells/well, activation Compound 1 50 μg/ml
  Final cytokine (IFN-γ): 373.4 pg/mL
LN cells [1]; treated 50 μg/M s.c., 5 million cells/well, activation Compound 1 100 μg/ml
  Final cytokine (IFN-γ): 547.0 pg/mL
LN cells [1]; treated 50 μg/M s.c., 5 million cells/well, activation Compound 1 25 μ/ml
  Final cytokine (IFN-γ): 277.9 pg/mL
LN cells [1]; treated 50 μg/M s.c., 5 million cells/well, activation Con A
  Final cytokine (IFN-γ): 4837.0 pg/mL
LN cells [1]; treated 100 μg/M s.c., 2.5 million cells/well, activation Compound 1 3.125 μg/ml
  Final cytokine (IFN-γ): 64.5 pg/mL
LN cells [1]; treated 100 μg/M s.c., 2.5 million cells/well, activation Compound 1 6.25 μg/ml
  Final cytokine (IFN-γ): 116.1 pg/mL
LN cells [1]; treated 100 μg/M s.c., 2.5 million cells/well, activation Compound 1 12.5 μg/ml
  Final cytokine (IFN-γ): 180.9 pg/mL
LN cells [1]; treated 100 μg/M s.c., 2.5 million cells/well, activation Compound 1 50 μg/ml
  Final cytokine (IFN-γ): 518.3 pg/mL
LN cells [1]; treated 100 μg/M s.c., 2.5 million cells/well, activation Compound 1 100 μg/ml
  Final cytokine (IFN-γ): 582.7 pg/mL
LN cells [1]; treated 100 μg/M s.c., 2.5 million cells/well, activation Compound 1 25 μ/ml
  Final cytokine (IFN-γ): 262.8 pg/mL
LN cells [1]; treated 100 μg/M s.c., 2.5 million cells/well, activation Con A
  Final cytokine (IFN-γ): 337.4 pg/mL
LN cells [1]; treated 100 μg/M s.c., 5 million cells/well, activation Compound 1 3.125 μg/ml
  Final cytokine (IFN-γ): 90.8 pg/mL
LN cells [1]; treated 100 μg/M s.c., 5 million cells/well, activation Compound 1 6.25 μg/ml
  Final cytokine (IFN-γ): 157.8 pg/mL
LN cells [1]; treated 100 μg/M s.c., 5 million cells/well, activation Compound 1 12.5 μg/ml
  Final cytokine (IFN-γ): 257.1 pg/mL
LN cells [1]; treated 100 μg/M s.c., 5 million cells/well, activation Compound 1 50 μg/ml
  Final cytokine (IFN-γ): 739.7 pg/mL
LN cells [1]; treated 100 μg/M s.c., 5 million cells/well, activation Compound 1 100 μg/ml
  Final cytokine (IFN-γ): 995.5 pg/mL
LN cells [1]; treated 100 μg/M s.c., 5 million cells/well, activation Compound 1 25 μ/ml
  Final cytokine (IFN-γ): 421.7 pg/mL
LN cells [1]; treated 100 μg/M s.c., 5 million cells/well, activation Con A
  Final cytokine (IFN-γ): 10126.8 pg/mL
LN cells [1]; treated 200 μg/M s.c., 2.5 million cells/well, activation Compound 1 3.125 μg/ml
  Final cytokine (IFN-γ): 103.9 pg/mL
LN cells [1]; treated 200 μg/M s.c., 2.5 million cells/well, activation Compound 1 6.25 μg/ml
  Final cytokine (IFN-γ): 126.1 pg/mL
LN cells [1]; treated 200 μg/M s.c., 2.5 million cells/well, activation Compound 1 12.5 μg/ml
  Final cytokine (IFN-γ): 129.0 pg/mL
LN cells [1]; treated 200 μg/M s.c., 2.5 million cells/well, activation Compound 1 50 μg/ml
  Final cytokine (IFN-γ): 378.1 pg/mL
LN cells [1]; treated 200 μg/M s.c., 2.5 million cells/well, activation Compound 1 100 μg/ml
  Final cytokine (IFN-γ): 524.1 pg/mL
LN cells [1]; treated 200 μg/M s.c., 2.5 million cells/well, activation Compound 1 25 μ/ml
  Final cytokine (IFN-γ): 240.3 pg/mL
LN cells [1]; treated 200 μg/M s.c., 2.5 million cells/well, activation Con A
  Final cytokine (IFN-γ): BQL
LN cells [1]; treated 200 μg/M s.c., 5 million cells/well, activation Compound 1 3.125 μg/ml
  Final cytokine (IFN-γ): 204.4 pg/mL
LN cells [1]; treated 200 μg/M s.c., 5 million cells/well, activation Compound 1 6.25 μg/ml
  Final cytokine (IFN-γ): 244.1 pg/mL
LN cells [1]; treated 200 μg/M s.c., 5 million cells/well, activation Compound 1 12.5 μg/ml
  Final cytokine (IFN-γ): 466.1 pg/mL
LN cells [1]; treated 200 μg/M s.c., 5 million cells/well, activation Compound 1 50 μg/ml
  Final cytokine (IFN-γ): 922.5 pg/mL
LN cells [1]; treated 200 μg/M s.c., 5 million cells/well, activation Compound 1 100 μg/ml
  Final cytokine (IFN-γ): 1006.2 pg/mL
LN cells [1]; treated 200 μg/M s.c., 5 million cells/well, activation Compound 1 25 μ/ml
  Final cytokine (IFN-γ): 660.5 pg/mL
LN cells [1]; treated 200 μg/M s.c., 5 million cells/well, activation Con A
  Final cytokine (IFN-γ): 7722.8 pg/mL
LN cells [1]; treated dose of 25 μg/mouse
  average inhibition of IFN-γ secretion: 95%
[2]
  16/6 Id specific antibody response: no effect
  SLE related findings (immune complex deposits in the kidney, proteinuria, leukopenia): significantly reduced
LN cells [3]
  TGF-β secreted level: below the detection limit
[4]; 23 responders
  patients whose PBL IL-2 secretion was inhibited / tested: 21/23
[4]; IL-2 secretion with 16/6 Id alone = 100%
  Maximum inhibition %: 84 ± 31%
[4]; PBL of 23 responders
  Inhibitory Activity* % (patients with inhibition of 50% or more): 91 (21/23) %
[4]; PBL of one SLE patient, FIG. 12
  inhibition of IL-2 secretion: 100%
(NZB×NZW)F1 female mice; 25 μg/mouse s.c. once a week in Captisol®, 5 weeks following treatment initiation
  Mean Proteinuria ± SEM: 0.16 ± 0.05 g/L
(NZB×NZW)F1 female mice; 25 μg/mouse s.c. once a week in Captisol®, 7 weeks following treatment initiation
  Mean Proteinuria ± SEM: 1.26 ± 1.09 g/L
(NZB×NZW)F1 female mice; 25 μg/mouse s.c. once a week in Captisol®, 8 weeks following treatment initiation
  Mean Proteinuria ± SEM: 0.5 ± 0.31 g/L
(NZB×NZW)F1 female mice; 25 μg/mouse s.c. once a week in Captisol®, 10 weeks following treatment initiation
  Mean Proteinuria ± SEM: 0.56 ± 0.3 g/L
(NZB×NZW)F1 female mice; 50 μg/mouse s.c. once a week in Captisol®, 5 weeks following treatment initiation
  Mean Proteinuria ± SEM: 0.75 ± 0.3 g/L
(NZB×NZW)F1 female mice; 50 μg/mouse s.c. once a week in Captisol®, 7 weeks following treatment initiation
  Mean Proteinuria ± SEM: 0.81 ± 0.3 g/L
(NZB×NZW)F1 female mice; 50 μg/mouse s.c. once a week in Captisol®, 8 weeks following treatment initiation
  Mean Proteinuria ± SEM: 1.09 ± 0.4 g/L
(NZB×NZW)F1 female mice; 50 μg/mouse s.c. once a week in Captisol®, 10 weeks following treatment initiation
  Mean Proteinuria ± SEM: 1.29 ± 0.3 g/L
(NZB×NZW)F1 female mice; 50 μg/mouse, kidneys at sacrifice, scale 0 = none, 1 = moderate, 2 = severe, 3 = severe/extremely intense
  ICD (Immune Complex Deposits) intensity, Mean ± SEM: 1.90 ± 0.23
(NZB×NZW)F1 female mice; 25 or 50 μg/mouse, after 10 treatment injections
  levels of dsDNA-specific antibodies versus control: no significant differences
(NZB×NZW)F1 female mice; either dose level (25 or 50 μg/mouse), FIG. 6
  intensity of immune complex deposits in kidney sections versus control group: much lower
[5]; 30% (w/w) PEG 400 formulation
  biological activity: inactive
[5]; formulations with acetate buffer and citrate buffer (Mannitol as tonicity agent)
  biological activity: active
[5]; the two cyclodextrin formulations (Hydroxypropyl-β-cyclodextrin, Captisol)
  biological activity: equal to the activity of the peptide alone
